Reference: patent US10696622B2, “Synthesis of N-vinyl carboxylic acid amides” (Taminco BVBA, priority 2016, dated 2020)

Assay: Solubility in solvent, CIPAC Method MT 181 at 20° C.
Assay type: physicochemical
From the text: When used, the solvent introduced into first reaction zone 20 may be any suitable type of solvent. The solvent may include a single solvent, or it may comprise a mixture of two or more solvents. In some embodiments, the solvent may be selected based on its solubility with one or more of the starting materials in lines 110, 112, and/or 114, and/or with the reaction product produced within first reaction zone 20. For example, at least one of the starting materials introduced into and/or the product withdrawn from first reaction zone 20 may have a solubility of at least about 20, at least about 25, at least about 30, at least about 35, at least about 40, at least about 45, at least about 50, at least about 55 weight percent in the solvent introduced into first reaction zone 20. In addition, or the alternative, at least one of the reagents introduced into and/or the reaction product withdrawn from first reaction zone 20 may have a solubility of not more than about 80, not more than about 75, not more than about 70, not more than about 65 weight percent in the solvent introduced into first reaction zone 20. Solubility is measured at 20° C. using CIPAC Method MT 181, unless otherwise noted.

solubility of 1-hydroxyethylformamide in formamide (in formamide): about 60 weight percent
solubility of 1-hydroxyethylformamide in isopropanol (in isopropanol, measured as described above (20° C., CIPAC Method MT 181)): 20.1 weight percent
SMILES: CC(O)NC=O (centres unmarked) [1-hydroxyethylformamide]
